Data set [1] concerns human melanoma CHL-1 (wild type B-Raf) xenograft. The data set is classed as in vivo. As to conditions: day 25. How it is done: Animals. […] . Mice were implanted with subcutaneous ID chips upon arrival and then underwent at least 7 days of acclimatization prior to the study start. All animal studies were conducted in a facility accredited by the Association for Assessment and Accreditation of Laboratory Animal Care International and in accordance with all guidelines of the Institutional Animal Care and Use Committee and the Guide for The Care and Use of Laboratory Animals (National Research Council).
Cell culture for in vivo efficacy studies. […] The human melanoma cell line CHL-1 was cultured for 6 passages in DMEM media with low glutamine+10% FBS at 37° C. in a humidified atmosphere with 5% CO2.
The day of tumor cell implantation, tumor cells were harvested and resuspended in HBSS (A375 cells) or 50% HBSS+plus 50% Matrigel (CHL-1 cells; Becton Dickenson and Company, Franklin Lakes, N.J.) at 2.5×10^7 cells/mL. Cells were inoculated subcutaneously in the right flank at 5×10^6 cells/200 uL/mouse.
. The group sizes were 9 animals per group (A375 study) or 10 animals per group (CHL-1 study). […] . […] . […] Comparisons of the mean tumor volume in the treatment vs. the vehicle group were evaluated using a Student's two tailed t-test (Excel software).

The test system of data set [2] is melanoma-inhibitory activity (MIA) protein. As to the kind of experiment: Plasma MIA levels in the CHL-1 study. As to conditions: 30 mg/kg and 80 mg/kg groups. Type of data set: in vivo, Nu/Nu mice. How it is done:
MIA ELISA Assay: Equal numbers of human melanoma and colorectal carcinoma cells (˜250,000 cells for each cell line) were seeded onto tissue culture plates and the culture medium for each cell line was collected 48 hr later. Levels of MIA in culture media or plasma were measured by a commercial single-step ELISA kit according to the manufacturer's protocol (Roche Diagnostics Corporation, Indianapolis, Ind.). MIA concentrations in test samples were calculated using a standard curve ranging from 3-37 ng/mL. When the MIA concentration exceeded the highest standard concentration, the samples were diluted 1:5 and assayed again to have the results fall within the linear range of the standard curve. Data were evaluated using the Student t-test (two-tailed distribution, two-sample unequal variance), using P≦0.05 as the level of significance.
In the CHL-1 study, plasma levels of the melanoma marker melanoma-inhibitory activity (MIA) protein secreted by melanoma cells were also measured.

Data set [3] relates to other kinases in the PI3K/Akt and MAPK(K) pathways. As to conditions: read-out: IC50 other kinases in the PI3K/Akt and MAPK(K) pathways; negligible activity.
For data set [4], the system named is BRaf WT CHL-1 melanoma tumors.
Data set [5] concerns melanoma tumor cells MEXF 1765/3. As to the kind of experiment: cells. The following applies: Homo sapiens.
Data set [6] relates to melanoma tumor cells MEXF 989/7. As to the kind of experiment: cells. The following applies: Homo sapiens.
In data set [7] the test system is melanoma tumor cells MEXF 1341/3. As to the kind of experiment: cells. The following applies: Homo sapiens.
For data set [8], the system named is melanoma tumor cells MEXF 672/3. As to the kind of experiment: cells. The following applies: Homo sapiens.
The subject of data set [9] is melanoma tumor cells MEXF 276/7. As to the kind of experiment: cells. As to conditions: Homo sapiens.
Data set [10] deals with melanoma tumor cells MEXF 514/12. As to the kind of experiment: cells. The following applies: Homo sapiens.
Data set [11] relates to melanoma tumor cells MEXF 462/6. As to the kind of experiment: cells. The following applies: Homo sapiens.
The subject of data set [12] is bFGF-driven neovascularization. As to the kind of experiment: In vivo FGF-mediated matrigel angiogenesis assay. The following applies: daily for 8 days.
The next data set concerns the target T1, VEGFR2/Flk1 (UniProt P35968).
T1 construct: other: purified enzyme
As to the kind of experiment: VEGFR2 kinase assay (purified enzyme). The following applies: read-out: IC50 VEGFR flk1. Type of data set: biochemical.

The mark [13] stands for this setting: Cmpd 1 30 mg/kg qd, carboplatin 50 mg/kg + paclitaxel 25 mg/kg 1x/wk.

The values that follow come from patent US20100086518A1, “TREATMENT OF MELANOMA” (NOVARTIS AG, priority 2007, published 2010).

Read-outs that look alike come from different tables or passages of the source. A value given as a limit tells only on which side of the number the result lay.

`CN1CCN(c2ccc3nc(-c4c(N)c5c(F)cccc5[nH]c4=O)[nH]c3c2)CC1` [Compound 1, 4-amino-5-fluoro-3-[6-(4-methylpiperazin-1-yl)-1H-benzimidazol-2-yl]-1H-quinolin-2-one]: the “tumor growth inhibition (TGI)” value in [1] (10 mpk p.o. daily) was determined as 64%; in [1] (30 mpk p.o. daily), 73%; in [1] (60 mpk p.o. daily) it was 89%; in data set [1] (80 mpk p.o. daily), 87%. Further, the “plasma MIA levels” value in data set [2] (day 8, vehicle […]) is given as “undetectable”; in data set [2] (day 22), “undetectable”. The IC50 in data set [3] was greater than 10 µM; in [5] (read-out: IC50 clonogenic, MEXF 1765/3), 2.58 µM; in [6] (MEXF 989, read-out: IC50 clonogenic, MEXF 989/7) it was 2.54 µM; in data set [7] (read-out: IC50 clonogenic, MEXF 1341/3), 2.24 µM; in data set [8] (read-out: IC50 clonogenic, MEXF 672/3) it was 1.67 µM; in [9] (read-out: IC50 clonogenic, MEXF 276/7) it was 1.14 µM. Moreover, the IC50 in data set [10] (MEXF514, read-out: IC50 clonogenic, MEXF 514/12) was 1.05 µM; in [11] (read-out: IC50 clonogenic, MEXF 462/6) it was 0.7 µM. Also, the “Clinical Observations” value in data set [4] (BAR = bright, alert, responsive, BWL = body weight loss) is “BAR”. The “% Mean change in BW of initial” value in data set [4] (setting [13]) was 4.3%. Also, in data set [4] (setting [13]), the “Max % TGI; day 14” value worked out at 52.51%. In addition, the “Mean of Tv on day 14” value in data set [4] (Cmpd 1 30 mg/kg qd, carboplatin 50 mg/kg + paclitaxel 25 mg/kg 1x/wk, tumor volume in mm^3) was found to be 884. Further, in [4] (day 14), the “T/C Observed (O)” value stood at 0.56. Besides, the EC50 is 2.58 µM in data set [5] (read-out: relative EC50 soft agar clonogenic, 1765/3); 2.54 µM in data set [6] (MEXF 989, read-out: relative EC50 soft agar clonogenic, 989/7); 2.24 µM in [7] (read-out: relative EC50 soft agar clonogenic, 1341/3); 1.67 µM in [8] (read-out: relative EC50 soft agar clonogenic, 672/3); 1.14 µM in data set [9] (read-out: relative EC50 soft agar clonogenic, 276/7); 1.05 µM in data set [10] (MEXF514, read-out: relative EC50 soft agar clonogenic, 514/12). Besides, the EC50 in data set [11] (read-out: relative EC50 soft agar clonogenic, 462/6) was found to be 0.7 µM. Besides, the “hemoglobin level in Matrigel plugs versus unsupplemented Matrigel” value in data set [12] (all doses >10 mg/kg) is reported as “less than the basal hemoglobin level”. For the same compound, the “IC50 of inhibition of bFGF-driven neovascularization” value in [12] (oral, 3-100 mg/kg, hemoglobin in Matrigel plugs) is 3 mg/kg.
Turning to `Nc1c(-c2nc3ccc(N4CCNCC4)cc3[nH]2)c(=O)[nH]c2cccc(F)c12` [Compound 3, 4-Amino-5-fluoro-3-(6-piperazin-1-yl-1H-benzimidazol-2-yl)quinolin-2(1H)-one], the IC50 at VEGFR2/Flk1 was […].
